Counter-ions that a name gives are not always drawn.
Tests used:
Type in all cases: biochemical
human α-thrombin = biological target: T1, human α-thrombin (Homo sapiens, UniProt P00734); test: In vitro inhibition of purified thrombin, Ki determination (p-nitroanilide substrate hydrolysis); conditions: Enzyme: Thrombin; substrate Suc-Ala-Ala-Pro-Arg-pNA 20 μM, 37° C., pH 7.5
T1 construct: Purified human a-thrombin was diluted into assay buffer; purchased Enzyme Research Laboratories (South Bend, Indiana)
Source text: (§1) All buffer salts were obtained from Sigma Chemical Company (St. Louis, Mo.), and were of the highest purity available. The enzyme substrates, N-benzoyl-Phe-Val-Arg-p-nitroanilide (SigmaB7632),N-benzoyl-Ile-Glu-Gly-Arg-p-nitroanilide (Sigma B2291), N-p-tosyl-Gly-Pro-Lys-p-nitroanilide (Sigma T6140), and N-succinyl-Ala-Ala-Pro-Phe-p-nitroanilide (Sigma S7388) were all obtained from Sigma.
(§2) Human α-thrombin and human factor Xa were obtained from Enzyme Research Laboratories (South Bend, Indiana). Bovine trypsin was obtained from Sigma.
All assays are based on the ability of the test compound to inhibit the enzyme catalyzed hydrolysis of a peptide p-nitroanilide substrate. In a typical Ki determination, substrate is prepared in DMSO, and diluted into an assay buffer consisting of 50 mM HEPES, 200 mM NaCl, pH 7.5. The final concentration for each of the substrates is listed below. In general, substrate concentrations are lower than the experimentally determined value for Km. Test compounds are prepared as a 0.16 mg/mL solution in DMSO. Dilutions are prepared in DMSO yielding 8 final concentrations encompassing a 200-fold concentration range. Enzyme solutions are prepared at the concentrations listed below in assay buffer.
(§3) In a typical Ki determination, into each well of a 96 well plate is pipetted 280 uL of substrate solution, 10 μL of inhibitor solution, and the plate allowed to thermally equilibrate at 37° C. in a Molecular Devices plate reader for >10 minutes. Reactions were initiated by the addition of a 20 μL aliquot of enzyme, and the absorbance increase at 405 nm is recorded for 15 minutes. Data corresponding to less than 10% of the total substrate hydrolysis were used in the calculations. The ratio of the velocity (rate of the change in absorbance as a function of time) for a sample containing no inhibitor is divided by the velocity of a sample containing inhibitor, and is plotted as a finction of inhibitor concentration. The data are fit to a linear regression, and the value of the slope of the line calculated. The inverse of the slope is the experimentally determined Ki value.
Thrombin activity was assessed as the ability to hydrolyze the substrate Suc-Ala-Ala-Pro-Arg-pNA. Substrate solutions were prepared at a concentration of 20 μM (20 uM<<Km=180 μM) in assay buffer. Final DMSO concentration was 0.3%. Purified human a-thrombin was diluted into assay buffer to a concentration of […]. Final reagent concentrations were: [thrombin] ═0.5 nM, [Suc-Ala-Ala-Pro-Arg-pNA]=20 μM.

bovine α-chymotrypsin = biological target: T2, bovine α-chymotrypsin (Bos taurus, UniProt P00766); test: In vitro inhibition of purified chymotrypsin, Ki determination (p-nitroanilide substrate hydrolysis); conditions: Enzyme: Chymotrypsin; substrate Suc-Ala-Ala-Pro-Phe-pNA 14 μM, 37° C., pH 7.5
T2 construct: Purified bovine x-chymotrypsin was diluted into assay buffer
Source text: as §1
All assays are based on the ability of the test compound to inhibit the enzyme catalyzed hydrolysis of a peptide p-nitroanilide substrate. In a typical Ki determination, substrate is prepared in DMSO, and diluted into an assay buffer consisting of 50 mM HEPES, 200 mM NaCl, pH 7.5. […] In general, substrate concentrations are lower than the experimentally determined value for Km. […]
as §3, with “Data corresponding to less than 10% of the total substrate hydrolysis were used in the calculations.” left out, “The data are fit to a linear regression, and the value of the slope of the line calculated. The inverse of the slope is the experimentally determined Ki value.” left out

bovine trypsin = biological target: T3, bovine trypsin (Bos taurus, UniProt P00760); test: In vitro inhibition of purified trypsin, Ki determination (p-nitroanilide substrate hydrolysis); conditions: Enzyme: Trypsin; substrate Bz-Phe-Val-Arg-pNA 14 μM, 37° C., pH 7.5
T3 construct: Purified bovine trypsin was diluted into assay buffer; purchased Sigma
T3 sequence (P00760 24-246): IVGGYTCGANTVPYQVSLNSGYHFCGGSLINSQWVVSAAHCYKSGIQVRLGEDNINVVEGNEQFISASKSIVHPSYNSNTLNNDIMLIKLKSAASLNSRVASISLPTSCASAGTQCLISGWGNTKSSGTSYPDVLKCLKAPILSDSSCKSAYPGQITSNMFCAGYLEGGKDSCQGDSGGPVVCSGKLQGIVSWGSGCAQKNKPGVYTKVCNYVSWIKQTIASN
Source text: as §1, §2
(§4) All assays are based on the ability of the test compound to inhibit the enzyme catalyzed hydrolysis of a peptide p-nitroanilide substrate. […] In general, substrate concentrations are lower than the experimentally determined value for Km. […]
as §3, with “Data corresponding to less than 10% of the total substrate hydrolysis were used in the calculations.” left out, “The data are fit to a linear regression, and the value of the slope of the line calculated. The inverse of the slope is the experimentally determined Ki value.” left out

human factor Xa = biological target: T4, human factor Xa (Homo sapiens, UniProt P00742); test: In vitro inhibition of purified factor Xa, Ki determination (p-nitroanilide substrate hydrolysis); conditions: Enzyme: Factor Xa; substrate Bz-Ile-Glu-Gly-Arg-pNA 51 μM, 37° C., pH 7.5
T4 construct: purchased Enzyme Research Laboratories (South Bend, Indiana)
T4 sequence (P00742 235-488 limits assumed): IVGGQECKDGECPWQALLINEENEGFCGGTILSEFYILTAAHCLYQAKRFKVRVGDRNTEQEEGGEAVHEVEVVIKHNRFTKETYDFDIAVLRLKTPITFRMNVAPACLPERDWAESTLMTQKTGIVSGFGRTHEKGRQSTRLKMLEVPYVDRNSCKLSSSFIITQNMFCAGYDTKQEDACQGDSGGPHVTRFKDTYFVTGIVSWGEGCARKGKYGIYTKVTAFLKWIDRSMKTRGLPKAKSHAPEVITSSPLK
T4 sequence (P00742 41-179 limits assumed): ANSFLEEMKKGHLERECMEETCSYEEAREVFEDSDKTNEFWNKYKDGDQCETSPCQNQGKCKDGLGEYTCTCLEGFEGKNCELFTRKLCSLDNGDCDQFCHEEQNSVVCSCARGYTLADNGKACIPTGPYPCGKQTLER
Source text: as §1, §2, §4
as §3, with “Data corresponding to less than 10% of the total substrate hydrolysis were used in the calculations.” left out, “The data are fit to a linear regression, and the value of the slope of the line calculated. The inverse of the slope is the experimentally determined Ki value.” left out

| Ki (human α-thrombin) [µM] | Structure (SMILES) | also measured |
| --- | --- | --- |
| 1.65 | CC(=N)N1CCC(COc2cc(C)cc(OS(=O)(=O)c3ccccc3Cl)c2)CC1 [Example 1, 2-Chlorobenzenesulfonic acid 3-[(1-acetimidoylpiperidin-4-yl)methoxy]-5-methylphenyl ester hydrochloride] | – |
| 0.57 | Cc1cc(OCCCC(=N)N)cc(OS(=O)(=O)c2ccccc2Cl)c1 [Example 14, 2-Chlorobenzenesulfonic acid 3-[3-amidinopropoxy]-5-methylphenyl ester hydrochloride] | – |
| – | Cc1cc(OCCCCCC(=N)N)cc(OS(=O)(=O)c2ccccc2Cl)c1 [Example 18, 2-Chlorobenzenesulfonic acid 3-[5-amidinopentyloxy]-5-methylphlenyl ester acetic acid salt] | Ki (bovine α-chymotrypsin): 6.29 µM |
| – | Cc1cc(OCc2cccc(C(=N)NO)c2)cc(OS(=O)(=O)c2ccccc2Cl)c1 [Example 7, 2-Chlorobenzenesutronic acid 3-[[3-(N-hydroxy)amidinophenyl]methoxy-5-methylphenyl ester hydrochloride] | Ki (bovine trypsin): 5.23 µM |
| – | Cc1cc(OCc2cccc(C(=N)N)c2)cc(OS(=O)(=O)c2ccccc2Cl)c1 [Example 6, 2-Chlorobenzenesulfonic acid 3-[(3amidinophenyl)methoxy]-5-methylphenyl ester hydrochloride] | Ki (human factor Xa): 2.72 µM |
| 4.86 | CC(=N)N1CCC(COc2cc(C)cc(OS(=O)(=O)c3cccc(Cl)c3)c2)CC1 [Example 5, 3-Chlorobenzenesulfonic acid 3-[[(1-acetimidoyl)piperidin-4-yl]methoxyl]-5-methylphenyl ester hydrochloride] | – |
| 1.72 | CC(=N)N1CCC(COc2cc(C)cc(OS(=O)(=O)c3cccc(Cl)c3Cl)c2)CC1 [Example 8, 2,3-Dichlorobenzenesulfonic acid 3-[[(1-acetimidoyl)piperidin-4-yl]methoxy]-5-methylphenyl ester hydrochloride] | – |
